2 compounds from US20240300932A1, “N-PHENYLIMINE DERIVATIVE AND PREPARATION METHOD AND USE THEREOF” (Guizhou University, priority 2023, published 2024) can be followed below.

One data set relates to Echinochloa crusgalli. Kind of data set: Post-emergence herbicidal activity test (stem and leaf spray, pot culture). In kind it is in vivo. Conditions: dosage 10 g/mu, 3 weeks after spraying. In a few lines:
(§1)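 Greenhouse pot-grown weeds (loam, pH 7) sprayed post-emergence at 2- to 3-leaf stage with acetone/Tween 80 formulation plus 1.5 liters/ha methyl oleate, at 10, 5 and 2.5 g/mu. Fresh-weight growth control rated 3 weeks later on 0–5 grade scale.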

The next data set relates to Setaria viridis. The description is as above. Conditions: dosage 10 g/mu, 3 weeks after spraying. In kind it is in vivo. The gist of the method: as §1
The next data set deals with Abutilon theophrasti. The description is as above. Conditions: dosage 10 g/mu, 3 weeks after spraying. The data set is classed as in vivo. In a few lines:
as §1

The subject of another data set is Portulaca oleracea. The description is as above. Conditions: dosage 10 g/mu, 3 weeks after spraying. In kind it is in vivo. In a few lines: as §1
The test system of the next data set is Amaranthus retroflexus. The data set is described as above. In kind it is in vivo. Conditions: dosage 10 g/mu, 3 weeks after spraying. The gist of the method: as §1
The subject of the next data set is Trifoliumre pensL. Described as above. Conditions: dosage 10 g/mu, 3 weeks after spraying. In kind it is in vivo. The gist of the method: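 Pot-grown weeds in loam (pH 7), greenhouse at 20–30 °C, sprayed once post-emergence at the 2–3-leaf stage. Compound in acetone with Tween 80 plus methyl oleate oil (1.5 L/ha), applied at 10, 5 and 2.5 g/mu by spray tower. Effect scored 3 weeks after spraying, averaged over three repeats.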

The test system of another data set is broad-leaf weeds. Kind of data set: Post-emergence herbicidal activity test, broad-leaf weeds as a group. Conditions: 10 a.i.g/mu. The data set is classed as in vivo. The protocol:
The weeds were cultivated in a 180 mm×140 mm plastic nutrient pot by a pot-culture method, placed in an enamel tray, and the plastic nutrient pots were filled with surface soil (⅘ of a depth) collected from a farmland and air-dried and sieved, and a soil humidity was controlled at 20% in the initial stage. Weed seeds with plump and uniform grains were selected, soaked in warm water at 25° C. for 6 h, and germinated in a biochemical incubator (dark) at 28° C. The freshly exposed weed seeds were evenly placed on the soil surface, and then covered with 0.5 cm to 1 cm of soil according to the size of the seeds. The weeds are cultivated in a controlled sunlight greenhouse at 20° C. to 30° C., under natural light, and a relative humidity of 57% to 72%. […]
2 weeks after sowing, the test plants were treated at the 2- to 3-leaf stage: the compounds of the present disclosure for testing were dissolved in acetone separately, and added with Tween 80, an emulsifiable oil of 1.5 liters/ha methyl oleate was added as a synergist, and an obtained mixture was diluted with certain water to a certain concentration solution. […] After spraying, the weeds were cultivated in the greenhouse for 3 weeks, and the experimental effects on the weeds were counted. […]

Consider `O=C(COC(=O)c1cc(N2C(=O)C3=C(CCCC3)C2=O)c(F)cc1Cl)c1ccccc1` [Compound E2, 2-oxo-2-phenylethyl-2-chloro-5-(1,3-dioxo-1,3,4,5,6,7-hexahydro-2H-isoindole-2-yl)-4-fluorobenzoate], for which the melting point lay in the range of 133 to 136 °C. The “Post-emergence herbicidal activity, E. crusgalli (grade)” value with Echinochloa crusgalli was 3 (Grade 3: the growth control rate is greater than or equal to 40% and less than 60%). Moreover, the “Post-emergence herbicidal activity, S. viridis (grade)” value in the data set on Setaria viridis is 4 (Grade 4: the growth control rate is greater than or equal to 60% and less than 85%). Besides, the “Post-emergence herbicidal activity, A. theophrasti (grade)” value in the data set with Abutilon theophrasti is recorded as 5 (Grade 5: the growth control rate is greater than or equal to 85%). The “Post-emergence herbicidal activity, P. oleracea (grade)” value in the data set with Portulaca oleracea is listed as 5 (Grade 5: the growth control rate is greater than or equal to 85%). Besides, in the data set on Amaranthus retroflexus, the “Post-emergence herbicidal activity, A. retroflexus (grade)” value is 5 (Grade 5: the growth control rate is greater than or equal to 85%). Further, the “Post-emergence herbicidal activity, Trifoliumre pensL. (grade)” value with Trifoliumre pensL. was 4 (Grade 4: the growth control rate is greater than or equal to 60% and less than 85%).

As to `C#CCN1C(=O)COc2cc(F)c(N3C(=O)C4=C(CCCC4)C3=O)cc21` [flumioxazin], the “control effect against broad-leaf weeds” value in the data set on broad-leaf weeds turned out to be 100%.
